Experimental data as given in publication PMC6704710, “Preclinical evaluation of 3D185, a novel potent inhibitor of FGFR1/2/3 and CSF-1R, in FGFR-dependent and macrophage-dominant cancer models” (Journal of Experimental & Clinical Cancer Research : CR, 2019).

How the values were obtained:
Assay in all cases: Eurofins kinase panel
Format in all cases: biochemical
Conditions in all cases: read-out: Inhibition rate (%)
CaMKIIβ(h) = target: T1, CaMKIIβ(h) (Homo sapiens, UniProt Q13554)
T1 construct: purchased Eurofins (KinaseProfiler)

EphA3(h) = target: T2, EphA3(h) (Homo sapiens, UniProt P29320)
T2 construct: purchased Eurofins (KinaseProfiler)
T2 sequence (P29320 21-983): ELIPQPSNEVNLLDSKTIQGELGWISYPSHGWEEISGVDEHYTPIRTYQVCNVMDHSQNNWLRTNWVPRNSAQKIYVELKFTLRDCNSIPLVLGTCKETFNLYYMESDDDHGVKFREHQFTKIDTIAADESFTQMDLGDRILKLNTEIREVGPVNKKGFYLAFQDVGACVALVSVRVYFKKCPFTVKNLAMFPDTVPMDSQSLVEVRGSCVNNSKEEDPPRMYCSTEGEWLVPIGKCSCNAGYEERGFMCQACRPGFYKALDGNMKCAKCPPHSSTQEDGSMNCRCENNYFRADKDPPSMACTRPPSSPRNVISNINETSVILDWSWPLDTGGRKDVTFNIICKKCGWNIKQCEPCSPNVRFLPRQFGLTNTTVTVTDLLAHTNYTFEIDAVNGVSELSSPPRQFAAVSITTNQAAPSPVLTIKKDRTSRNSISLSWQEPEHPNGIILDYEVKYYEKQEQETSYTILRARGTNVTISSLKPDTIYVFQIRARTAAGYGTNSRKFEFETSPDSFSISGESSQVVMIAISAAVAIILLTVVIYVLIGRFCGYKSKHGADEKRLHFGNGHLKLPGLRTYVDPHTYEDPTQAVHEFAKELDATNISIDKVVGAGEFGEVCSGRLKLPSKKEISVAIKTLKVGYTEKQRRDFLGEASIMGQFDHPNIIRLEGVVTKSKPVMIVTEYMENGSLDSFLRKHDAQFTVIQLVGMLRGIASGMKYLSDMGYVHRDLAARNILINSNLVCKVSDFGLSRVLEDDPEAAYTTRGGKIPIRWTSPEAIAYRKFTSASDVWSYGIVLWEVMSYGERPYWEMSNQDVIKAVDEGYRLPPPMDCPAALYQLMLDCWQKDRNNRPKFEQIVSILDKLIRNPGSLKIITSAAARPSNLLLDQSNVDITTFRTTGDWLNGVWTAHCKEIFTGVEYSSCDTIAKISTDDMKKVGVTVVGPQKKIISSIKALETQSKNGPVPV

JAK2(h) = target: T3, JAK2(h) (Homo sapiens, UniProt O60674)
T3 construct: purchased Eurofins (KinaseProfiler)

SGK2(h) = target: T4, SGK2(h) (Homo sapiens, UniProt Q9HBY8)
T4 construct: purchased Eurofins (KinaseProfiler)
T4 sequence (Q9HBY8 1-367): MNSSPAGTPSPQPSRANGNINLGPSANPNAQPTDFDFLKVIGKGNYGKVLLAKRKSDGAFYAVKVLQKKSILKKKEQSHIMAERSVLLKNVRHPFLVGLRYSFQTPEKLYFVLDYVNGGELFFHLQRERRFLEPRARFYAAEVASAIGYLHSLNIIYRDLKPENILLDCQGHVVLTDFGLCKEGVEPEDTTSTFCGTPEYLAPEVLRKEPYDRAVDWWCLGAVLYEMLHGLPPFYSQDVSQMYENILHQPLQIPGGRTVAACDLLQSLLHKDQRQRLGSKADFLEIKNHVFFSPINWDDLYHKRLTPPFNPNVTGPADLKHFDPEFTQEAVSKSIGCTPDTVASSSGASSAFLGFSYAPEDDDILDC

SIK(h) = target: T5, SIK(h) (Homo sapiens, UniProt P57059)
T5 construct: purchased Eurofins (KinaseProfiler)
T5 sequence (P57059 whole entry): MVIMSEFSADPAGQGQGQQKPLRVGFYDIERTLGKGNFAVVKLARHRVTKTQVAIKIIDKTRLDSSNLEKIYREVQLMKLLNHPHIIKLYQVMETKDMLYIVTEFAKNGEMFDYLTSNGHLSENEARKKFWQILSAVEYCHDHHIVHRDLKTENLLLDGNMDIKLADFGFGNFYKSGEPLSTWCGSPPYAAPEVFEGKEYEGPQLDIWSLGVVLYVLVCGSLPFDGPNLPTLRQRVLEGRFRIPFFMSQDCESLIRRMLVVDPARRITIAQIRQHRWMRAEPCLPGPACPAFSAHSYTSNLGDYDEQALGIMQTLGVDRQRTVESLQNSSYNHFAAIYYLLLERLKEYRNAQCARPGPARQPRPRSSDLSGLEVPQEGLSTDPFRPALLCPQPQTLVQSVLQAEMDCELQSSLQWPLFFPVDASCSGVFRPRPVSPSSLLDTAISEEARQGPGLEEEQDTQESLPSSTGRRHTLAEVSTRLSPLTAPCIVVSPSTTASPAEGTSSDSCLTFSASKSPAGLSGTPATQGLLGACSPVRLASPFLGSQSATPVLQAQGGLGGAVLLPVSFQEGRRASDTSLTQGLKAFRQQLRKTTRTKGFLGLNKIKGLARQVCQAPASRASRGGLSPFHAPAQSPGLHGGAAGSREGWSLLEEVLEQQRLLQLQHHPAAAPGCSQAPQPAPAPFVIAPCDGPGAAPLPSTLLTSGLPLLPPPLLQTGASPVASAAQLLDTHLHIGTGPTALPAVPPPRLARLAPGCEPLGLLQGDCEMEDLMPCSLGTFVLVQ

T3 sequence (O60674 whole entry): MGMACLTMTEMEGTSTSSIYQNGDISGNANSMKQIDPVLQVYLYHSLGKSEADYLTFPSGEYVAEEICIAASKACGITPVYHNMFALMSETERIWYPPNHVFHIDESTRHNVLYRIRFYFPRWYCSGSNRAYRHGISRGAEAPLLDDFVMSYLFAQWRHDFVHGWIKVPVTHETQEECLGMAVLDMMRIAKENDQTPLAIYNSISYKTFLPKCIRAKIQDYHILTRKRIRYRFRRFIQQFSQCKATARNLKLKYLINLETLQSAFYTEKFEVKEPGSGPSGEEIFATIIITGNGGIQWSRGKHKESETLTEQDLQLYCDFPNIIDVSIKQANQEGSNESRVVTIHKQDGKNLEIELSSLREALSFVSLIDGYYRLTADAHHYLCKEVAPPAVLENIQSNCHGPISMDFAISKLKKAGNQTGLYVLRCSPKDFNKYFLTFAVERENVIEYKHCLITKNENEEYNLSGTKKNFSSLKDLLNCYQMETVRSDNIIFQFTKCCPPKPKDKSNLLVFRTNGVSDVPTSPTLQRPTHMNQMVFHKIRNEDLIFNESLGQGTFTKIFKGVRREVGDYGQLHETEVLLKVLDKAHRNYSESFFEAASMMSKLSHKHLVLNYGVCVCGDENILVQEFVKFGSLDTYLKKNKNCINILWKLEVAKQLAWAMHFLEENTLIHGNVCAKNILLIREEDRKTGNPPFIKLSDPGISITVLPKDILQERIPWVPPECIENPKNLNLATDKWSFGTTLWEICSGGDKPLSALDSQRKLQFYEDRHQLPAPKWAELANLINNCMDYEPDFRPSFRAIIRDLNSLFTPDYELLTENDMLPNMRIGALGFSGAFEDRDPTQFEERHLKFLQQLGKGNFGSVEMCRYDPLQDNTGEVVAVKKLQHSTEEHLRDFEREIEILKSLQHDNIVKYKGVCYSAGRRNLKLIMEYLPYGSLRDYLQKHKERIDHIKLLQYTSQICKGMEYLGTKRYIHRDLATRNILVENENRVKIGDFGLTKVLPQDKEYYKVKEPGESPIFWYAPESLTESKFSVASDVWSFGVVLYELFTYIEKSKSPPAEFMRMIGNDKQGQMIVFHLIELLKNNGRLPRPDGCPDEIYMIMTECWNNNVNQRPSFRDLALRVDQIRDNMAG
T1 sequence (Q13554 whole entry): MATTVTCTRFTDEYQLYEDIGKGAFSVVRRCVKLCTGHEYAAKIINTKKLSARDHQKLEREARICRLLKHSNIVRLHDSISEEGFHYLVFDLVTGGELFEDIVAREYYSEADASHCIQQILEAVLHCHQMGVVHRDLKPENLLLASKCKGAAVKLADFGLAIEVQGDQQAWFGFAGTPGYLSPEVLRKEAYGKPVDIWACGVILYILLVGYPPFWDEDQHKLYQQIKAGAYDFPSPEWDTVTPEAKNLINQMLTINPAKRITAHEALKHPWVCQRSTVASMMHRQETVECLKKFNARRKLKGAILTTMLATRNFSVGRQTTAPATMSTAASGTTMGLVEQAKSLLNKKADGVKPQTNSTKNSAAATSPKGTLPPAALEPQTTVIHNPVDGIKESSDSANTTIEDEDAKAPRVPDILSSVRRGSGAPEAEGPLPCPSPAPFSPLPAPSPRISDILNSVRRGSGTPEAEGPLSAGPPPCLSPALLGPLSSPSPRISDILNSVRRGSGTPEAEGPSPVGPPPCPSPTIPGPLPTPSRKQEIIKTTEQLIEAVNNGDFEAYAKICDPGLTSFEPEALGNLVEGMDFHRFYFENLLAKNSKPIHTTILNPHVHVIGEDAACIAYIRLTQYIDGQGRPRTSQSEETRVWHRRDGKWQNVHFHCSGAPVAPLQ

Structure (SMILES): COc1cc(OC)c(Cl)c(-c2ccc3c(NC(=O)c4ccc(N5CCNC(C)(C)C5)cc4)n[nH]c3n2)c1Cl [3D185]
- inhibition at 0.01 µM (CaMKIIβ(h); 10 nM): -1%
- inhibition at 0.1 µM (CaMKIIβ(h); 100 nM): -3%
- inhibition at 1 µM (CaMKIIβ(h); 1000 nM): -4%
- inhibition at 0.01 µM (EphA3(h); 10 nM): 2%
- inhibition at 0.1 µM (EphA3(h); 100 nM): 14%
- inhibition at 1 µM (EphA3(h); 1000 nM): 30%
- inhibition at 0.01 µM (JAK2(h); 10 nM): -14%
- inhibition at 0.1 µM (JAK2(h); 100 nM): 5%
- inhibition at 1 µM (JAK2(h); 1000 nM): 6%
- inhibition at 0.01 µM (SGK2(h); 10 nM): 4%
- inhibition at 0.1 µM (SGK2(h); 100 nM): 1%
- inhibition at 1 µM (SGK2(h); 1000 nM): 26%
- inhibition at 0.01 µM (SIK(h); 10 nM): 4%
- inhibition at 0.1 µM (SIK(h); 100 nM): -17%
- inhibition at 1 µM (SIK(h); 1000 nM): -5%
